Usually IC50 stands for the concentration that inhibits the measured activity by half.

For one test, the target named is T1, recombinant human Casp1 (Homo sapiens, UniProt P29466).
T1 sequence (P29466 120-297 limits assumed): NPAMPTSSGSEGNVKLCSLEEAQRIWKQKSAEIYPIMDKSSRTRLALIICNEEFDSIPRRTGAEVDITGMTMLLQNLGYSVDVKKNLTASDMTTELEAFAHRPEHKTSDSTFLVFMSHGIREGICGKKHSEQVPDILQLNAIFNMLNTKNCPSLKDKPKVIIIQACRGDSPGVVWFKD
T1 sequence (P29466 317-404 limits assumed): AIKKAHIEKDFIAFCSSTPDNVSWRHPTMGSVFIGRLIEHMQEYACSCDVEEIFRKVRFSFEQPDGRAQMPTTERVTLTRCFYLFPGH
The experiment in a line: Caspase inhibition IC50, recombinant human Casp1. Particulars: read-out: IC50 against human Casp1. It is filed as biochemical. Here is the method: (§1) FIG. 14: Selectivity and blood brain permeability of VX-765 and VRT-043198. (a-b) IC50 of VX-765 (a) and VRT-043198 (b) against human Casp1-10. (c-d) IC50 of VX-765 (c) and VRT-043198 (d) against mouse Casp1 and Casp11. (e) Blood brain barrier permeability and presence of VX-765 and VRT-043198 in 3 wild type and 4 J20 mice brain cortex and hippocampus and in plasma. Ratios of brain levels to plasma levels are calculated.

Another test concerns the target T2, mouse recombinant Casp1 (Mus musculus, UniProt P29452).
T2 sequence (P29452 119-296 limits assumed): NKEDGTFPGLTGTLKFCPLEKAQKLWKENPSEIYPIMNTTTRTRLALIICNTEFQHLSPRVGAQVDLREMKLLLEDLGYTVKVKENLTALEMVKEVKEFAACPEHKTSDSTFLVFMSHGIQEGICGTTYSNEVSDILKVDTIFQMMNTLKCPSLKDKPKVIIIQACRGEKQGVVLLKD
T2 sequence (P29452 315-402 limits assumed): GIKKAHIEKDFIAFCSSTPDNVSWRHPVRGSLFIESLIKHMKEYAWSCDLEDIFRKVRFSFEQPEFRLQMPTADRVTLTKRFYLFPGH
The experiment in a line: Caspase inhibition IC50, mouse recombinant Casp1. It is filed as biochemical. The settings on record: read-out: IC50 against mouse Casp1. Here is the method:
as §1

Test [1] relates to APP^WT-transfected human primary neurons. In words: Neuritic beading in APPWT-transfected human primary neurons. Type of test: cell-based. Here is the method: (§2) FIG. 13: VX-765 protects CNS primary human neurons (HPN) against APP- or serum deprivation-mediated neuritic beading. (a) MTT assay with increasing dose of VX-765. (b) Fluorescent micrographs showing homogeneous distribution of EGFP in normal neurons and neuritic beading in APP-transfected neurons. (c) Percentage beading in APP-transfected or serum-deprived neurons treated 1 h before and continuously with stressor (Pre-treatment) or 48 h after stressor (post-beading treatment) with 25 or 50 μM VX-765 or with 5 μM Z-YVAD-fmk Casp1 peptide inhibitor. […] (d-e) HPN secreted or cellular Aβ42/total Aβ38+40+42 (d) (F(3,4)=12.73, p=0.0163, ANOVA, Dunnett's post-hoc compared to Serum+DMSO, *p<0.05), and (e) levels of secreted II-1β, IFN-γ, TNF-α, and II-6 from untreated (+S), serum deprived (−S), or serum-deprived human neurons treated with 25 or 50 μM VX-765.
(§3) EGFP-labeled human primary neurons were either APP^WT transfected or serum deprived. Two treatment strategies were employed to determine VX-765's effects on neuronal degeneration: our Pre-Treatment strategy looked at whether VX-765 could block neuronal degeneration when administered 1 hr prior to APP^WT transfection or serum deprivation, while our Reversal Treatment strategy looked at whether VX-765 could reverse degenerative effects when administered 48 hrs after APP^WT transfection or serum deprivation. Neurons displaying beaded morphology were counted with live imaging and measured as a percentage of the total number of eGFP+ neurons from 24-72 hrs after treatment. The irreversible caspase-1 inhibitor YVAD-fmk was used as positive control in our experiments. Results were obtained from averaging counts for at least 100 eGFP+ neurons per experiment in three independent neuron preparations.

For test [2], the system named is serum deprived human primary neurons. In words: Neuritic beading in serum-deprived human primary neurons. It is filed as cell-based. The settings on record: reversal treatment 48 hrs after serum deprivation. As to the method: as §2, §3

With `CC(C)(C)[C@H](NC(=O)c1ccc(N)c(Cl)c1)C(=O)N1CCC[C@H]1C(=O)N[C@H]1CC(=O)OC1O` (stereo partly drawn) [VRT-043198, (2S)-1-((S)-2-(4-amino-3-chlorobenzamido)-3,3-dimethylbutanoyl)-N-((3S)-2-hydroxy-5-oxotetrahydrofuran-3-yl)pyrrolidine-2-carboxamide], the IC50 worked out at 9.91 nM at recombinant human Casp1 and 18 nM on mouse recombinant Casp1.
Consider Z-YVAD-fmk, for which the neuritic beading result in test [1] (pre-treatment 1 h before and continued, VX-765 25 and 50 μM, Z-YVAD-fmk 5 μM, 48 and 72 h) is recorded as “prevented neuritic beading”; in test [1] (reversal (post-beading) treatment 48 hrs after APP^WT transfection, listed as YVAD) it was “not able to reverse neuritic beading at any time-point”; in test [1] (reversal (post-beading) treatment 48 hrs after APP^WT transfection, listed as YVAD-fmk), “unable to reverse or prevent neuritic beading at any time-point”; in test [2], “neither YVAD nor VX-765 were able to reverse neuritic beading”.

The values above are taken from US11160788B2, “Caspase-1 inhibition and uses thereof for prevention and treatment of neurological conditions” (priority 2016, dated 2021).
